Test results from paper PMC11637191, “The pH-dependence of efflux ratios determined with bidirectional transport assays across cellular monolayers” (International Journal of Pharmaceutics: X, 2024).
Read-outs that look alike come from different tables or passages of the source. One block for each compound: values may come before it.

Experiments:
[1] = tested on: MDCK-MDR1 cells; conditions: pH 7.4 iso-method, cited from earlier work; for Papp, inhibitor: with inhibitor; for Papp, B⟶A: without inhibitor
[2] = tested on: MDCK-MDR1 cells; test: Comparison of Papp,B-A with and without inhibitor in MDCK-MDR1 cells (own and literature data); conditions: calculated from literature Papp,B⟶A and Papp with inhibitor; pH 7.4 iso-method
[3] = Calculation of neutral fraction (fn)
[4] = basic; no reference given; cited from earlier work
[5] = ref Troutman and Thakker (2003)

- Factor difference [2]: 3
SMILES: C[C@H]1C[C@@H]2[C@H]([C@@H](O)C[C@@]3(C)[C@H]2CC[C@]3(O)C(=O)CO)[C@@]2(C)C=CC(=O)C=C12 [Methylprednisolone]
- Papp, inhibitor [1, 5]: 28.48 ×10⁻⁶ cm/s
- Papp, B⟶A [1, 5]: 94.3 ×10⁻⁶ cm/s

- Factor difference [2]: 6
SMILES: CCOC(=O)CN[C@@H](C(=O)N1CC[C@H]1C(=O)NCc1ccc(/C(N)=N\O)cc1)C1CCCCC1 [Ximelagatran]
- Papp, inhibitor ([1]; ref Eriksson et al. (2006)): 7 ×10⁻⁶ cm/s
- Papp, B⟶A ([1]; ref Eriksson et al. (2006)): 39 ×10⁻⁶ cm/s

- Factor difference [2]: 4
SMILES: Cc1c(O)cccc1C(=O)N[C@@H](CSc1ccccc1)[C@H](O)CN1C[C@H]2CCCC[C@H]2C[C@H]1C(=O)NC(C)(C)C [Nelfinavir]
- Papp, inhibitor ([1]; ref Doan et al. (2002)): 19.7 ×10⁻⁶ cm/s
- Papp, B⟶A ([1]; ref Doan et al. (2002)): 78.6 ×10⁻⁶ cm/s

- Factor difference [2]: 2
SMILES: Nc1ccn([C@@H]2CS[C@H](CO)O2)c(=O)n1 [Lamiduvine]
- Papp, inhibitor ([1]; ref De Souza et al. (2009)): 0.11 ×10⁻⁶ cm/s
- Papp, B⟶A ([1]; ref De Souza et al. (2009)): 0.18 ×10⁻⁶ cm/s

- Factor difference [2]: 2
SMILES: CN1CCC[C@@H]1Cc1c[nH]c2ccc(CCS(=O)(=O)c3ccccc3)cc12 [Eletriptan]
- Papp, inhibitor ([1]; ref Doan et al. (2002)): 42.9 ×10⁻⁶ cm/s
- Papp, B⟶A ([1]; ref Doan et al. (2002)): 66.3 ×10⁻⁶ cm/s

- fn ([3]; neutral fraction at pH 9): 0.0%
SMILES: NS(=O)(=O)c1cc(C(=O)O)c(NCc2ccco2)cc1Cl [Furosemide]

- Factor difference [2]: 3
SMILES: CN1CCC[C@@H]1CCO[C@](C)(c1ccccc1)c1ccc(Cl)cc1 [Clemastine]
- Papp, B⟶A ([1]; ref Obradovic et al. (2007)): 156.4 ×10⁻⁶ cm/s

- Factor difference [2]: 5
SMILES: CC(C)NCC(O)c1ccc(NS(C)(=O)=O)cc1 (stereo not shown) [Sotolol]
- Papp, inhibitor ([1]; ref Liu et al. (2012)): 0.2 ×10⁻⁶ cm/s
- Papp, B⟶A ([1]; ref Liu et al. (2012)): 1.05 ×10⁻⁶ cm/s

- Factor difference [2]: 3
SMILES: Cc1cn([C@H]2C[C@H](N=[N+]=[N-])[C@@H](CO)O2)c(=O)[nH]c1=O [Zidovudine]
- Papp, inhibitor ([1]; ref De Souza et al. (2009)): 3.26 ×10⁻⁶ cm/s
- Papp, B⟶A ([1]; ref De Souza et al. (2009)): 9.98 ×10⁻⁶ cm/s

More lines, now with the values behind:

SMILES: CC[C@]1(O)C[C@@H]2CN(CCc3c([nH]c4ccccc34)[C@@](C(=O)OC)(c3cc4c(cc3OC)N(C)[C@H]3[C@@](O)(C(=O)OC)[C@H](OC(C)=O)[C@]5(CC)C=CCN6CC[C@]43[C@@H]65)C2)C1 [Vinblastine]
- Papp, inhibitor ([1]; ref Taub et al. (2005)): 1.92 ×10⁻⁶ cm/s
- Papp, inhibitor [1, 5]: 17.7 ×10⁻⁶ cm/s
- Papp, inhibitor ([1]; ref Wang et al. (2005)): 1.2 ×10⁻⁶ cm/s
- Papp, B⟶A ([1]; ref Taub et al. (2005)): 13.22 ×10⁻⁶ cm/s
- Papp, B⟶A [1, 5]: 35.7 ×10⁻⁶ cm/s
- Papp, B⟶A ([1]; ref Wang et al. (2005)): 10.77 ×10⁻⁶ cm/s

SMILES: CN(C)C(=O)C(CCN1CCC(O)(c2ccc(Cl)cc2)CC1)(c1ccccc1)c1ccccc1 [Loperamide]
- Papp, inhibitor ([1]; ref Doan et al. (2002)): 45.6 ×10⁻⁶ cm/s
- Papp, inhibitor ([1]; ref Wang et al. (2005)): 12 ×10⁻⁶ cm/s
- Papp, B⟶A ([1]; ref Doan et al. (2002)): 77.3 ×10⁻⁶ cm/s
- Papp, B⟶A ([1]; ref Wang et al. (2005)): 42.64 ×10⁻⁶ cm/s

SMILES: CN(C)CCC(c1ccc(Br)cc1)c1ccccn1 (stereo not shown) [Brompheniramine]
- Papp, inhibitor ([1]; ref Obradovic et al. (2007)): 76.8 ×10⁻⁶ cm/s
- Papp, B⟶A ([1]; ref Obradovic et al. (2007)): 118.8 ×10⁻⁶ cm/s
- Factor difference [2]: 2

SMILES: CN(C)CCC(c1ccc(Cl)cc1)c1ccccn1 (stereo not shown) [Chlorpheniramine]
- Papp, inhibitor ([1]; ref Obradovic et al. (2007)): 66.2 ×10⁻⁶ cm/s
- Papp, B⟶A ([1]; ref Obradovic et al. (2007)): 93.7 ×10⁻⁶ cm/s
- Factor difference [2]: 1

SMILES: CC(C)(C)c1ccc(C(O)CCCN2CCC(C(O)(c3ccccc3)c3ccccc3)CC2)cc1 (stereo not shown) [Terfenadine]
- Papp, inhibitor ([1]; ref Doan et al. (2002)): 28.5 ×10⁻⁶ cm/s
- Papp, inhibitor ([1]; ref Obradovic et al. (2007)): 2.39 ×10⁻⁶ cm/s
- Papp, B⟶A ([1]; ref Doan et al. (2002)): 42.1 ×10⁻⁶ cm/s
- Papp, B⟶A ([1]; ref Obradovic et al. (2007)): 11.43 ×10⁻⁶ cm/s

SMILES: CN(C)C(=O)Oc1cccc([N+](C)(C)C)c1 [Neostigmine]
- Papp, inhibitor ([1]; ref Doan et al. (2002)): 0.852 ×10⁻⁶ cm/s
- Papp, B⟶A ([1]; ref Doan et al. (2002)): 1.54 ×10⁻⁶ cm/s
- Factor difference [2]: 2

SMILES: C=C[C@H]1C[N@@]2CC[C@H]1C[C@@H]2[C@@H](O)c1ccnc2ccc(OC)cc12 [Quinidine]
- Papp, inhibitor ([1]; ref Gertz et al. (2010)): 0.176 ×10⁻⁶ cm/s
- Papp, inhibitor [1, 5]: 25.6 ×10⁻⁶ cm/s
- Papp, inhibitor ([1]; ref Wang et al. (2005)): 10 ×10⁻⁶ cm/s
- Papp, B⟶A ([1]; ref Gertz et al. (2010)): 66.88 ×10⁻⁶ cm/s
- Papp, B⟶A [1, 5]: 156 ×10⁻⁶ cm/s
- Papp, B⟶A ([1]; ref Wang et al. (2005)): 114.82 ×10⁻⁶ cm/s

SMILES: CC(C)c1nc(CN(C)C(=O)N[C@H](C(=O)N[C@@H](Cc2ccccc2)C[C@H](O)[C@H](Cc2ccccc2)NC(=O)OCc2cncs2)C(C)C)cs1 [Ritonavir]
- Papp, B⟶A [1, 5]: 23.6 ×10⁻⁶ cm/s
- Factor difference [2]: 6

SMILES: COC(=O)c1ccccc1-c1c2ccc(=N)cc-2oc2cc(N)ccc12 [Rhodamine 123]
- Papp, inhibitor ([1]; ref Tang et al. (2004)): 1.173 ×10⁻⁶ cm/s
- Papp, inhibitor [1, 5]: 1.16 ×10⁻⁶ cm/s
- Papp, inhibitor ([1]; ref Wang et al. (2005)): 2.2 ×10⁻⁶ cm/s
- Papp, B⟶A ([1]; ref Tang et al. (2004)): 10.17 ×10⁻⁶ cm/s
- Papp, B⟶A [1, 5]: 15.3 ×10⁻⁶ cm/s
- Papp, B⟶A ([1]; ref Wang et al. (2005)): 7.63 ×10⁻⁶ cm/s

SMILES: CN/C(=N/CCSCc1nc[nH]c1C)NC#N [Cimetidine]
- Papp, inhibitor ([1]; ref Doan et al. (2002)): 0.515 ×10⁻⁶ cm/s
- Papp, B⟶A ([1]; ref Doan et al. (2002)): 1.89 ×10⁻⁶ cm/s
- Factor difference [2]: 4

SMILES: CC(C)(C)NCC(O)COc1ccc(NC(=O)NC2CCCCC2)cc1 (stereo not shown) [Talinolol]
- pKa [4]: 9.4
- fn ([3]; neutral fraction at pH 8): 5%

SMILES: CNC(=C[N+](=O)[O-])NCCSCc1ccc(CN(C)C)o1 [Ranitidine]
- Papp, inhibitor [1, 5]: 1.25 ×10⁻⁶ cm/s
- Papp, B⟶A [1, 5]: 3.29 ×10⁻⁶ cm/s
- Factor difference [2]: 3

SMILES: CC(C)(C)NC(=O)[C@@H]1C[C@@H]2CCCC[C@@H]2CN1C[C@@H](O)[C@H](Cc1ccccc1)NC(=O)[C@H](CC(N)=O)NC(=O)c1ccc2ccccc2n1 [Saquinavir]
- Papp, inhibitor ([1]; ref Doan et al. (2002)): 22 ×10⁻⁶ cm/s
- Papp, inhibitor [1, 5]: 12.6 ×10⁻⁶ cm/s
- Papp, B⟶A ([1]; ref Doan et al. (2002)): 39.5 ×10⁻⁶ cm/s
- Papp, B⟶A [1, 5]: 108 ×10⁻⁶ cm/s
